Test results: PMC9496819 (Cancers, 2022)
Each block holds one compound with its values, some of them ahead of it.

How the values were obtained:
[1] = test system: OVCAR8 PTX R P cells; test: Presto Blue cell viability assay, single drugs and Paclitaxel combinations (Chou–Talalay, Bliss, HSA analysis); conditions: for Cellular viability (%) Media: alone or combined
Method: (§1) To determine the effect of single and combination drug treatments on the cellular viability of cell lines, a resazurin-based assay—Presto Blue (PB)—was performed. Briefly, 5 × 10^3 cells/well were seeded into a 96-well plate in complete media, incubated at 37 °C and 5% CO2 and allowed to adhere overnight prior to drug exposure. After 24 h, cells were exposed to increasing concentrations of drugs and incubated under the same conditions. After 48 h, culture medium was removed, and 50 μL/well of PrestoBlue^TM Cell Viability Reagent 1× (ThermoFisher Scientific) was added. Cells were incubated for 45 min, protected from light, at 37 °C and 5% CO2.
(§2) The IC50 values were first obtained for each drug alone for OVCAR8, OVCAR8 PTX R P and HOSE6.3 cell lines. […] A mutually exclusive model, assuming that drugs act through […] mechanisms, was used for this analysis. […] The CI is a quantitative representation of pharmacological interactions (i.e., CI < 1, synergism; =1, additive interactions; and >1, antagonism), plotted on y-axis as a function of effect level (Fa) on the x-axis to assess drug synergism between drug combinations. Additionally, we estimated the expected drug combination responses based on the Bliss Independence and Highest Single Agent (HSA) reference models using SynergyFinder 2.0 Software. Positive and negative synergy score values denote synergy and antagonism, respectively. The cNMF algorithm implemented in SynergyFinder 2.0 was used for estimation of outlier measurements.

[2] = test system: OVCAR8 cells; test: as above; conditions: for Cellular viability (%) Media: OVCAR8, 48 h, alone or combined
Method: as §1, §2

[3] = test system: HOSE6.3 cells; test: Presto Blue cell viability assay in non-tumoral cells, single drugs and Paclitaxel combinations (Chou–Talalay, Bliss, HSA analysis); conditions: for IC50 (in words) / IC50: 48 h; for IC50 (in words): considered concentration ranges; for Cellular viability (%) Media: HOSE6.3, 48 h, alone or combined
Method: as §1, §2

[4] = as above; conditions: human, HOSE6.3 cells (non-tumoral)
Method: as §1, §2

[5] = OVCAR8 PTX R P, 48 h, 0.25 x IC50 of each drug
[6] = OVCAR8 PTX R P, 48 h, 0.5 x IC50 of each drug
[7] = OVCAR8 PTX R P, 48 h, 2 x IC50 of each drug
[8] = OVCAR8 PTX R P, 48 h, IC50 of each drug

IC50 ([1]; Homo sapiens, OVCAR-8, 48 h): 196 ± 20.2 µM | IC50 ([2]; Homo sapiens, OVCAR-8, 48 h): 219 ± 13.6 µM
Compound: NCCCC(O)(P(=O)(O)O)P(=O)(O)O [Alendronate]
IC50 (in words) ([3]; HOSE6.3, single agent): not obtaining IC50 values in the considered concentration ranges

IC50 ([1]; Homo sapiens, OVCAR-8, 48 h): 35.6 ± 0.48 µM | IC50 ([2]; Homo sapiens, OVCAR-8, 48 h): 39.1 ± 3.38 µM
Compound: CCC(C)n1ncn(-c2ccc(N3CCN(c4ccc(OCC5COC(Cn6cncn6)(c6ccc(Cl)cc6Cl)O5)cc4)CC3)cc2)c1=O (stereo not drawn) [Itraconazole]
IC50 ([3]; Homo sapiens): 38.6 ± 5.11 µM

IC50 ([1]; Homo sapiens, OVCAR-8, 48 h): 1460 ± 193 µM | IC50 ([2]; Homo sapiens, OVCAR-8, 48 h): 1500 ± 169 µM
Compound: CN(C)C(=N)N=C(N)N [Metformin]
IC50 (in words) ([3]; HOSE6.3, single agent): not obtaining IC50 values in the considered concentration ranges

IC50 ([1]; Homo sapiens, OVCAR-8, 48 h): 0.85 ± 0.142 µM | IC50 ([2]; Homo sapiens, OVCAR-8, 48 h): 0.801 ± 0.061 µM
Compound: O=C(O)C[C@H](O)C[C@H](O)/C=C/c1c(C2CC2)nc2ccccc2c1-c1ccc(F)cc1 [Pitavastatin]
Cellular viability (%) Media [1, 5]: 59.998% | Cellular viability (%) Media [1, 6]: 50.426% | Cellular viability (%) Media [1, 7]: 28.330% | Cellular viability (%) Media [1, 8]: 45.406% | Cellular viability (%) Media ([2]; 0.25 x IC50 of each drug): 61.378% | Cellular viability (%) Media ([2]; 0.5 x IC50 of each drug): 51.912% | Cellular viability (%) Media ([2]; 2 x IC50 of each drug): 27.970% | Cellular viability (%) Media ([2]; IC50 of each drug): 45.624% | viability at 48 h, 0.25 x IC50 [4]: 81.8% | viability at 48 h, 0.5 x IC50 [4]: 76.5% | viability at 48 h, 1 x IC50 [4]: 68.5% | viability at 48 h, 2 x IC50 [4]: 65.9% | viability at 48 h, 4 x IC50 [4]: 61.4% | IC50 (in words) ([3]; HOSE6.3, single agent): not obtaining IC50 values in the considered concentration ranges

Compound: Ivermectin
Cellular viability (%) Media [1, 5]: 81.152% | Cellular viability (%) Media [1, 6]: 65.026% | Cellular viability (%) Media [1, 7]: 0.966% | Cellular viability (%) Media ([1]; OVCAR8 PTX R P, 48 h, 4 x IC50 of each drug): 1.370% | Cellular viability (%) Media [1, 8]: 47.496% | IC50 ([1]; OVCAR8 PTX R P, single agent, 48 h): 15.5 ± 1.86 µM | Cellular viability (%) Media ([2]; 0.25 x IC50 of each drug): 77.004% | Cellular viability (%) Media ([2]; 0.5 x IC50 of each drug): 69.934% | Cellular viability (%) Media ([2]; 2 x IC50 of each drug): 0.759% | Cellular viability (%) Media ([2]; 4 x IC50 of each drug): 0.867% | Cellular viability (%) Media ([2]; IC50 of each drug): 46.412% | IC50 ([2]; OVCAR8, single agent, 48 h): 16 ± 2.91 µM | Cellular viability (%) Media ([3]; 0.5 x IC50 of each drug): 99.694% | Cellular viability (%) Media ([3]; 2 x IC50 of each drug): 0.539% | Cellular viability (%) Media ([3]; 4 x IC50 of each drug): 0.000% | Cellular viability (%) Media ([3]; IC50 of each drug): 53.462% | IC50 ([3]; HOSE6.3, single agent): 12.6 ± 2.19 µM
